Type in all cases: functional
For experiment [1], the species on record is Rattus norvegicus. The experiment can be described thus: […] activity in rat aorta precontracted with 30 mM KCl.
The species named for experiment [2] is Cavia porcellus. The experiment can be described thus: Maximum relaxation achieved compared to maximum relaxation to aminophylline (mM) in guinea pig trachaelis.
The species named for experiment [3] is Cavia porcellus. The experiment can be described thus: Inhibition of spontaneous tone in guinea pig trachaelis.
For experiment [4], the species on record is Rattus norvegicus. The experiment can be described thus: Maximum reduction of 30 mM KCl- induced contraction in rat aorta.

Structures are written as SMILES.

The source of these data is ChEMBL document CHEMBL1127953, “Substituent effects of benzopyran-4-(N-cyano)-carboxamidine potassium channel openers for selectivity to guinea pig trachealis” (Bioorg Med Chem Lett, 1994).

Turning to `CNC(=O)C1=CC(C)(C)Oc2ccc([N+](=O)[O-])cc21`, the values for the EC50 in experiment [1] and in experiment [3] were 0.0107 µM and 0.0331 µM, respectively. The Intrinsic activity in experiment [2] amounted to 89.6%; in experiment [4] it was 61%.

For the molecule `CN(C)C(=S)C1=CC(C)(C)Oc2ccc([N+](=O)[O-])cc21`, the 50% effective concentration (EC50) in experiment [1] was 0.955 µM; in experiment [3] it was 0.49 µM. Moreover, the Intrinsic activity in experiment [2] was 77.4%; in experiment [4], 71.5%.

`CN(C)/C(=N\C#N)C1=CC(C)(C)Oc2ccc([N+](=O)[O-])cc21`: the EC50 in experiment [1] was greater than 31.6 µM; in experiment [3], 0.0513 µM. In experiment [2], the Intrinsic activity was 90.6%.

As to `CN(C)/C(=N\S(N)(=O)=O)C1=CC(C)(C)Oc2ccc([N+](=O)[O-])cc21`, the EC50 in experiment [1] and in experiment [3] was greater than 31.6 µM throughout.

For the molecule `CN(C)/C(=N\C#N)C1=CC(C)(C)Oc2ccc(Cl)cc21`, the concentration for a half-maximal effect (EC50) in experiment [1] and in experiment [3] was greater than 31.6 µM throughout.

As to `CN(C)/C(=N/C#N)C1=CC(C)(C)Oc2ccc(OC(F)(F)F)cc21`, the EC50 is greater than 10 µM in experiment [1] and 0.407 µM in experiment [3]. This molecule also yielded an Intrinsic activity in experiment [2] of 56.1%.

`CN(C)/C(=N\C#N)C1=CC(C)(C)Oc2ccc(C#N)cc21`: the EC50 was 5.01 µM in experiment [1] and 2.14 µM in experiment [3]. The Intrinsic activity in experiment [2] was 85.6%; in experiment [4], 73.7%.

As for `CN(C)/C(=C\[N+](=O)[O-])C1=CC(C)(C)Oc2ccc([N+](=O)[O-])cc21`, the EC50 is 6.46 µM in experiment [1] and 1.12 µM in experiment [3]. In addition, the figures for the Intrinsic activity in experiment [2] and in experiment [4] were 84.8% and 83.1%, respectively.

Consider `COc1ccc2c(c1)C(/C(=N/C#N)N(C)C)=CC(C)(C)O2`, for which the concentration for a half-maximal effect (EC50) in experiment [1] and in experiment [3] was greater than 31.6 µM in each case.

Turning to `CN(C)/C(=N\C#N)C1=CC(C)(C)Oc2ccccc21`, the EC50 in experiment [1] and in experiment [3] was greater than 31.6 µM each time.

As for `CN(C)/C(=N\C#N)C1=CC(C)(C)Oc2ccc(Br)cc21`, the half-maximal effective concentration (EC50) in experiment [1] and in experiment [3] was greater than 31.6 µM throughout.

Consider `CN(C)/C(=N\C#N)C1=CC(C)(C)Oc2ccc(C(F)(F)F)cc21`, for which the concentration for a half-maximal effect (EC50) in experiment [1] is 12.6 µM; in experiment [3] it was 0.178 µM. Further, the Intrinsic activity in experiment [2] is on record as 74.1%; in experiment [4], 75.2%.

For `CN(C)/C(=N\C#N)C1=CC(C)(C)Oc2ccc(S(=O)(=O)c3ccccc3)cc21`, the figures for the 50% effective concentration (EC50) in experiment [1] and in experiment [3] were 3.31 µM and 3.63 µM, respectively. Also, the Intrinsic activity in experiment [2] turned out to be 91.1%; in experiment [4], 73.8%.

In the case of `CN(C)/C(=N\C(N)=O)C1=CC(C)(C)Oc2ccc([N+](=O)[O-])cc21`, the EC50 in experiment [1] and in experiment [3] was greater than 31.6 µM each time.

Turning to `CN(C)/C(=N\C#N)C1=CC(C)(C)Oc2ccc(S(C)(=O)=O)cc21`, the half-maximal effective concentration (EC50) in experiment [1] and in experiment [3] was greater than 31.6 µM each time.

`CN(C)C(=O)C1=CC(C)(C)Oc2ccc([N+](=O)[O-])cc21`: the values for the EC50 in experiment [1] and in experiment [3] were 0.129 µM and 0.398 µM, respectively. For the same molecule, the Intrinsic activity in experiment [2] is given as 78.3%; in experiment [4], 79.9%.

As to `CC1(C)Oc2ccc(C#N)cc2[C@@H](N2CCCC2=O)[C@H]1O` [CROMAKALIM], the Intrinsic activity is listed as 85.1% in experiment [2] and 74.7% in experiment [4]. The molecule further showed a half-maximal effective concentration (EC50) in experiment [3] of 0.851 µM.

For the molecule `CC(N/C(=N\C#N)Nc1ccncc1)C(C)(C)C` (centres undefined) [PINACIDIL ANHYDROUS], the Intrinsic activity in experiment [2] stood at 97.3%; in experiment [4] it was 91.9%. This molecule also had an EC50 in experiment [3] of 1.58 µM.

Broadly, the EC50 is the midpoint of the concentration-response curve. A low value points to an effect from little substance.
